Assay results taken from patent US20090220554A1, “Transglutaminase Inhibitors and Methods of Use Thereof” (priority 2005, published 2009).

Target: T1, recombinant human tissue transglutaminase 2 (TG2) (Homo sapiens, UniProt P21980)
T1 construct: 6xHis; made in house; host or cells: E. coli BL21
T1 sequence (P21980 1-687): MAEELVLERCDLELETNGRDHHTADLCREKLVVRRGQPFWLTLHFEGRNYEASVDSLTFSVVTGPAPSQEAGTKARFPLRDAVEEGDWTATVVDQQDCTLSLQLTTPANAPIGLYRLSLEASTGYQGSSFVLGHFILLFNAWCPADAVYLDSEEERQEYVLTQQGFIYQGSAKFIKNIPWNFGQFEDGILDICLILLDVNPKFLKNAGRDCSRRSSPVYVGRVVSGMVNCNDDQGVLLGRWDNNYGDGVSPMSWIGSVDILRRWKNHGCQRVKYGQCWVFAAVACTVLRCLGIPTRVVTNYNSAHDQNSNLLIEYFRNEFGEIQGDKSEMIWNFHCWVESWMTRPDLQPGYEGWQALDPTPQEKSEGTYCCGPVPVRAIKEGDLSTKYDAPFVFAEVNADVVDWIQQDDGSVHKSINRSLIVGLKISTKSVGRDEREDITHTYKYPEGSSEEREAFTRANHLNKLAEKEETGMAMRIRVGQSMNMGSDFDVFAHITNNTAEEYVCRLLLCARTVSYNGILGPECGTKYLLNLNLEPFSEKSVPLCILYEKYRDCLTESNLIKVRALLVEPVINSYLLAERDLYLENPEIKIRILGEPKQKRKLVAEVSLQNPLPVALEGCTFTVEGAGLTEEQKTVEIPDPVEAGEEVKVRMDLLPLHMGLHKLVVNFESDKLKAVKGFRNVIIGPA
Test: TG2 deamidation assay (GDH-coupled fluorescent NADH assay, Z-Gln-Gly substrate)
Assay type: biochemical
Settings: fluorescent NADH-based deamidation assay; from log(concentration)-response relationships; read-out: IC50 for inhibition of TG2
Procedure: The illustrative compounds of the invention described above were tested in a TG2 assay with recombinant human tissue transglutaminase, as described in the Examples. […] It should be noted that, although […] inhibition is observed upon addition of these compounds, this observation may result from the ability of some inhibitors to bind to the GTP binding site of TG2. […] Thus, it follows that pharmacologically useful inhibitors of TG2 could be identified based on their ability to bind to either the enzyme active site or the GTP binding site. Purification of recombinant human TG2. […] The enzyme was isolated from cell lysates using nickel affinity chromatography. Following a buffer exchange, TG2 was purified further by ion-exchange (HiTrap-Q) chromatography using an Akta-FPLC system (Amersham Biosciences). […] Assays of tissue transglutaminase activity. The transamidation activity of TG2 was measured as described by Slaughter, et al. Anal Biochem, 1992. 205(1): p. 166-71. Briefly, 96-well Maxisorp plates (Nunc, Inc.) were coated with […] N′—N′-dimethylated casein overnight at 4° C. […] The deamidation activity of TG2 was measured essentially as described previously (Piper, et al. Biochemistry, 2002. 41(1): p. 386-93). […] TG2-catalyzed production of ammonium ions was monitored through the coupled oxidation of NADH by GDH. NADH levels were monitored by fluorescence (excitation: 341 nm; emission 451 nm) and were standardized with known amounts of NADH. During enzymatic reactions, NADH levels were monitored kinetically using a Fluoroskan II (Labsystems, Inc.) 96-well plate reader and a lag time of four minutes. These values were determined through analysis of the log(concentration)-response relationships.

Compound	IC50
Cc1cccc(NC(=S)N(Cc2cc3ccc(C)c(C)c3[nH]c2=O)CC2CCCO2)c1 (stereo not shown) [CSRF-3, 1-(7,8-dimethyl-2-oxo-1,2-dihydro-quinolin-3-ylmethyl)-1-(tetrahydrofuran-2-ylmethyl)-3-m-tolyl-thiourea]	30 µM
O=C1Nc2ccc(Oc3ccc4c(c3)C(=O)C(=O)N4)cc2C1=O [CSRF-18, di-(1H-indole-2,3-dione-5-yl)-ether]	23 µM
O=C(CN1C(=O)C(=O)c2cc(Br)ccc21)NCC1CC1 [CSRF-7, 2-(5-bromo-2,3-dioxo-2,3-dihydro-indol-1-yl)-N-cyclopropylmethyl-acetamide]	30 µM
O=C1Nc2ccc(Cc3ccc4c(c3)C(=O)C(=O)N4)cc2C1=O [CSRF-14, 1,1-di-(1H-indole-2,3-dione-5-yl)-methane]	16 µM
O=C(NNC(=O)C1=NOC(CNc2ncc(C(F)(F)F)cc2Cl)C1)Nc1ccc(Cl)cc1 (stereo not shown) [CSRF-13, 1-(4-chloro-phenyl)-3-(2-{5-[3-chloro-5-trifluoromethyl-pyridin-2-ylamino)-methyl]-4,5-dihydro-isoxazol-3-yl}-carboxamido-N-urea]	250 µM
O=C(CSc1nnc2c(n1)[nH]c1ccc(F)cc12)OC1CCCCC1 [CSRF-2, (6-fluoro-9H-1,3,4,9-tetraaza-fluoren-2-ylsulfanyl)-acetic acid cyclohexyl ester]	36 µM
O=C1C(=O)N(C(=O)NC2CCCCC2)c2ccc(Br)cc21 [CSRF-20, 5-bromo-2,3-dioxo-2,3-dihydro-indole-1-carboxylic acid cyclohexylamide]	110 µM
Cc1ccc2c(c1)C(=O)C(=O)N2CC(=O)Nc1ccc(S(=O)(=O)NCC2CCCO2)cc1 (stereo not shown) [CSRF-8]	150 µM
CCN1C(=O)c2cccc3c(NC(=O)CSc4ccc5ccccc5n4)ccc1c23 [CSRF-17]	200 µM
O=C(CN1C(=O)C(=O)c2ccccc21)Nc1ccc(N2CCN(C(=O)c3cccs3)CC2)cc1 [CSRF-6, 2-(2,3-dioxo-2,3-dihydro-indol-1-yl)-N-{4-[4-(thiophene-2-carbonyl)-piperazin-1-yl]-phenyl}-acetamide]	17 µM
CC1=CC(C)(C)N2C(=O)C(=O)c3cc(OC(=O)C4CCCO4)cc1c32 (stereo not shown) [CSRF-24, tetrahydrofuran-2-carboxylic acid 4,4,6-trimethyl-1,2-dioxo-1,2-dihydro-4H-pyrrolo[3,2,1-ij]quinolin-8-yl ester]	450 µM

Target: T1, recombinant human tissue transglutaminase 2 (TG2)
Test: TG2 transamidation assay (5-(biotinamido)pentylamine incorporation into dimethylated casein)
Assay type: biochemical
Settings: not given
Source text: Purification of recombinant human TG2. TG2 was purified from eight 1 L cultures of the BL21 strain of E. coli expressing a plasmid encoding recombinant, 6×-His tagged human tissue transglutaminase 2 (TG2). The enzyme was isolated from cell lysates using nickel affinity chromatography. Following a buffer exchange, TG2 was purified further by ion-exchange (HiTrap-Q) chromatography using an Akta-FPLC system (Amersham Biosciences). Fractions containing purified TG2 were pooled, exchanged into low salt buffer (20 mM Tris-Cl, 1 mM EDTA, 1 mM DTT, pH 7.2), supplemented with 10% glycerol, flash frozen in 100 μL aliquots and stored at −80° C.
Assays of tissue transglutaminase activity. The transamidation activity of TG2 was measured as described by Slaughter, et al. Anal Biochem, 1992. […] 5-BP incorporated by TG2 was visualized by binding of a streptavidin-alkaline phosphatase conjugate (Sigma) and kinetic measurement of the dephosphorylation of pNPP was monitored at 410 nm using a ThermoMax microplate reader (Molecular Devices). The deamidation activity of TG2 was measured essentially as described previously (Piper, et al. Biochemistry, 2002. 41(1): p. 386-93). […] TG2-catalyzed production of ammonium ions was monitored through the coupled oxidation of NADH by GDH. NADH levels were monitored by fluorescence (excitation: 341 nm; emission 451 nm) and were standardized with known amounts of NADH. […]

Compound	IC50
O=C1NC(=O)N(c2cccc(Cl)c2)C(=O)/C1=N/c1ccc(Cl)c(CN2C(=O)c3ccccc3C2=O)c1 [CSRF-21, 5-[4-Chloro-3-(1,3-dioxo-1,3-dihydro-isoindol-2-ylmethyl)-phenylimino]-1-(3-chloro-phenyl)-pyrimidine-2,4,6-trione]	10 µM

Tested on: neurologic cancer
Test: not given
Settings: at concentrations of 12.5-50 mg/kg; cited from earlier work

Compound	activity in a mouse model for neurologic cancer
O=C(N[C@@H](Cc1ccc(O)cc1)C(=O)NCC1CC(Br)=NO1)OCc1ccccc1 (stereo partly shown) [KCC009]	active
